Values after ≈ are worked out from the molar mass of the structure shown.
What was measured:
Saccharomyces cerevisiae [1] = assay: DNA damaging activity against DNA repair-deficient RS 322YK (rad 52Y) yeast assessed as drug level required to produce 12 mm zone of inhibition; type: functional
Saccharomyces cerevisiae [2] = assay: DNA damaging activity against RS 188N (RAD+) yeast assessed as drug level required to produce 12 mm zone of inhibition; type: functional
Vero = assay: Cytotoxicity against african green monkey Vero cells; type: cell-based; conditions: Chlorocebus sabaeus

| SMILES | IC12 (Saccharomyces cerevisiae [1]) | IC12 (Saccharomyces cerevisiae [2]) | IC50 (Vero) |
| --- | --- | --- | --- |
| C=C1[C@@H]([C@@]2(C)[C@@H](OC(C)=O)C[C@@]3(O)OC[C@](C)(O3)[C@@H]2CC(=O)OC)[C@@H](OC=O)[C@H](OC(=O)C(O)C(C)CC)[C@@]2(C)[C@H](c3ccoc3)CC(=O)[C@]12O (stereo not given in full) | 0.9 µg/mL | 100 µg/mL | 12 µg/mL (≈ 16.6 µM) |
| CC[C@@]1(O)C(=O)OCc2c1cc1n(c2=O)Cc2cc3ccccc3nc2-1 [CAMPTOTHECIN] | 0.6 µg/mL | 110 µg/mL |  |

Source: ChEMBL document CHEMBL1159204, “Limonoids showing selective toxicity to DNA repair-deficient yeast and other constituents of Trichilia emetica” (J Nat Prod, 1998)
